# Assay results from patent US7790895B2, “Quinoline derivatives as potassium ion channel openers” (Janssen Pharmaceutica NV, priority 2005, dated 2010).
# Target: T1, KATP channels (Homo sapiens, UniProt O60706)
# T1 construct: TE671 human medulloblastoma cells were obtained from ATCC; host or cells: TE671 human medulloblastoma cells
# Experiment: Potassium Channel Assay (FLIPR membrane potential, KATP channel opening)
# Assay type: cell-based
# Conditions: TE671 human medulloblastoma cells, Membrane Potential Assay Dye, room temperature
# Experimental: TE671 human medulloblastoma cells were obtained from ATCC and grown in Dulbecco's modified Eagle's medium (DMEM) supplemented with 10% fetal bovine serum, 100 U/ml penicillin and 100 U/ml streptomycine.
# The day before testing, the cells were plated in black 96-well plates at 50K/well. On the day of testing, the growth media was removed, then 100 μl of FLIPR buffer (20 mM HEPES, 120 mM NaCl, 2 mM KCl, 2 mM CaCl2, 1 mM MgCl2, 5 mM Glucose) and 100 μl of Membrane Potential Assay Dye (Molecular Devices) dissolved in FLIPR buffer were added to each well. The cells were incubated at room temperature for 15 to 30 min.
# The effect of test compounds on KATP channels were evaluated on a fluorometric imaging plate reader (FLIPR, Molecular Devices) at room temperature. After a baseline period, 50 μl of 5× stock solution of test compound prepared in FLIPR buffer was added and fluorescence change was monitored for 3 minutes. After this reading, glyburide, a KATP channel blocker, was added to a final concentration of 5 μM to check the specificity of the test compound as a KATP channel opener. Hyperpolarization resulting from KATP channel opening was observed as a decrease in fluorescence intensity.
# T1 sequence (O60706 1-1549 isoform O60706-2): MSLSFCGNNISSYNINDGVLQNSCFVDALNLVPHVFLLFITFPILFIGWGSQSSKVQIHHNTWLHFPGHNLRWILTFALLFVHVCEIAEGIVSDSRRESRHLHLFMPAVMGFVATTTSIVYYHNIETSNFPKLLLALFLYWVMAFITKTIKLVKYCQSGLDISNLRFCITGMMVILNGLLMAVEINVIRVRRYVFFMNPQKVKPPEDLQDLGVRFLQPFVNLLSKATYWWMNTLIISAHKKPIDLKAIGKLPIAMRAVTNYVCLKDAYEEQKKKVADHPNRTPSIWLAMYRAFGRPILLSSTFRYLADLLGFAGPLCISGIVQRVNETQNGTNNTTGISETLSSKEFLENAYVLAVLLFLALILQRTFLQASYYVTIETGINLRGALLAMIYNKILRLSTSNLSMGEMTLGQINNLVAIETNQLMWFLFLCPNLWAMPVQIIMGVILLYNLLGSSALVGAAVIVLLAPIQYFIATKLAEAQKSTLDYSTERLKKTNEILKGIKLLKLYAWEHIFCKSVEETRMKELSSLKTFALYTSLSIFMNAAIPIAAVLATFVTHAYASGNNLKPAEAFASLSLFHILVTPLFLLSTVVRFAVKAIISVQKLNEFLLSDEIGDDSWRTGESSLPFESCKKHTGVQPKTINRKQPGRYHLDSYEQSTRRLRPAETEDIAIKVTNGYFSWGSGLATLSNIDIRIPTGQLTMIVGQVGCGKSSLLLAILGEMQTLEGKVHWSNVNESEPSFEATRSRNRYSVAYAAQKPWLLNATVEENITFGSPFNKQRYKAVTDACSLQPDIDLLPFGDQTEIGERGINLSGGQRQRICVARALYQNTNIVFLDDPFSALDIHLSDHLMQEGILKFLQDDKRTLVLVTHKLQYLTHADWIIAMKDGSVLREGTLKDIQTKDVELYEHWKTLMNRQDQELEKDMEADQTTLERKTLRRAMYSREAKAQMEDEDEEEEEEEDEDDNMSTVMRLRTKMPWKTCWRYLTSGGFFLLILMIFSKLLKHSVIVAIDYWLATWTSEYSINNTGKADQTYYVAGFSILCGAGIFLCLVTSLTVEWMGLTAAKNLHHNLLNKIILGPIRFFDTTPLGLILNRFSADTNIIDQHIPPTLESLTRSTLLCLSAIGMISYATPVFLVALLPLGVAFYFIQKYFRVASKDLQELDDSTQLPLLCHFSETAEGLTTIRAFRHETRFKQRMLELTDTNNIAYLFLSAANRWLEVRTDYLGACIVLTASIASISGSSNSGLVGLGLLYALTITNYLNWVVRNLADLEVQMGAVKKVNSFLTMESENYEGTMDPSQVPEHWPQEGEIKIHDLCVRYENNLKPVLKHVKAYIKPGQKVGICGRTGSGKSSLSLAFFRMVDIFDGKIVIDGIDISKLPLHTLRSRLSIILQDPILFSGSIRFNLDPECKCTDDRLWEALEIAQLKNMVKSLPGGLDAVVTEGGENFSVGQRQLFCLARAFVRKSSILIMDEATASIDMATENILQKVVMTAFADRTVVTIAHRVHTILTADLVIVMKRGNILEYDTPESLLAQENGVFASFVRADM
# T1 sequence (Q14654 whole entry partner): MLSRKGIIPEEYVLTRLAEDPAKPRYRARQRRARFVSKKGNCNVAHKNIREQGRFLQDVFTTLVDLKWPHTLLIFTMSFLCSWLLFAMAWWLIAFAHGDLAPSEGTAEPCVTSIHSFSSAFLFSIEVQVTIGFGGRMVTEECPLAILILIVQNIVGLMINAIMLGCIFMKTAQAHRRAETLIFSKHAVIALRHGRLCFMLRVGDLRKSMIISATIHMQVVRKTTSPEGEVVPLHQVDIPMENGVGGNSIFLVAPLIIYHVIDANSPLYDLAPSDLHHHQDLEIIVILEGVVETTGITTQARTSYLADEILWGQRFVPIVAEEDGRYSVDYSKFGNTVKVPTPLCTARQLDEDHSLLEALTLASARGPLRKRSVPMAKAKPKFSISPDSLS
row,SMILES,EC50
1,"N#Cc1cccc(-c2ccncc2C=O)c1 [Compound 51, 3-(3-Formyl-pyridin-4-yl)-benzonitrile]",> 30 µM
2,"COc1ccc(C=O)cc1-c1ccncc1C=O [Compound 53, 4-(5-Formyl-2-methoxy-phenyl)-pyridine-3-carbaldehyde]",> 30 µM
3,"N#Cc1cccc(C2OC(O)c3cnccc32)c1 (stereo not shown) [Compound 55, 3-(3-Hydroxy-1,3-dihydro-furo[3,4-c]pyridin-1-yl)-benzonitrile]",> 30 µM
4,"OCc1cnccc1C(O)c1ccccc1 (stereo not shown) [Compound 56, (3-Hydroxymethyl-pyridin-4-yl)-phenyl-methanol]",> 30 µM
5,"N#Cc1cccc(C(O)c2ccncc2CO)c1 (stereo not shown) [Compound 57, 3-[Hydroxy-(3-hydroxymethyl-pyridin-4-yl)-methyl]-benzonitrile]",> 30 µM
6,COc1ccc(CO)cc1-c1ccncc1CO [Compound 58],> 30 µM
7,"OC1OC(c2ccccc2)c2ccncc21 (stereo not shown) [Compound 65, 1-Phenyl-1,3-dihydro-furo[3,4-c]pyridin-3-ol]",> 30 µM

# Continued, values first:
row,EC50,SMILES
1,> 30 µM,"N#Cc1cccc(-c2ccncc2CO)c1 [Compound 50, 3-(3-Hydroxymethyl-pyridin-4-yl)-benzonitrile]"
2,17.2 µM,"CC(O)c1cnccc1-c1cccc(C#N)c1 (stereo not shown) [Compound 52, 3-[3-(1-Hydroxy-ethyl)-pyridin-4-yl]-benzonitrile]"
3,26.8 µM,"CC(O)c1cnccc1C(=O)c1ccccc1 (stereo not shown) [Compound 59, [3-(1-Hydroxy-ethyl)-pyridin-4-yl]-phenyl-methanone]"
4,7.97 µM,"CC(C)C(O)c1cnccc1Br (stereo not shown) [Compound 63, 1-(4-Bromo-pyridin-3-yl)-2-methyl-propan-1-ol]"
5,8.19 µM,"N#Cc1cccc(C2OCc3cnccc32)c1 (stereo not shown) [Compound 66, 3-(1,3-Dihydro-furo[3,4-c]pyridin-1-yl)-benzonitrile]"

# Same assay, conditions: TE671 human medulloblastoma cells, Membrane Potential Assay Dye, room temperature, test concentration not given
row,% Stimulation,SMILES
1,30%,"COc1ccc(C=O)cc1-c1ccncc1C=O [Compound 53, 4-(5-Formyl-2-methoxy-phenyl)-pyridine-3-carbaldehyde]"
